Measurements: ChEMBL document CHEMBL3885881, “DrugMatrix”

Species on record: Rattus norvegicus
Test: DrugMatrix - Regimen: Daily Repeat
Format: toxicity, organism-based, Sprague-Dawley
Design: regimen Daily Repeat, gender Male, age 6-8 weeks
Conditions: in vivo, po, route oral GAVAGE, vehicle .5 % CMC; for ABSOLUTE BASOPHIL / ABSOLUTE EOSINOPHIL / ABSOLUTE LYMPHOCYTE / ABSOLUTE MONOCYTE / ABSOLUTE SEGMENTED NEUTROPHIL / BASOPHIL / EOSINOPHIL / ERYTHROCYTE COUNT / HEMATOCRIT / HEMOGLOBIN / LEUKOCYTE COUNT / LYMPHOCYTE / MEAN CORPUSCULAR HEMOGLOBIN / MEAN CORPUSCULAR HEMOGLOBIN CONCENTRATION / MEAN CORPUSCULAR VOLUME / MONOCYTE / NEUTROPHIL / NUCLEATED RED BLOOD CELLS / PLATELET COUNT: tissue Blood; for ALANINE AMINOTRANSFERASE / ALBUMIN / ALKALINE PHOSPHATASE / ASPARTATE AMINOTRANSFERASE / BLOOD UREA NITROGEN / CARBON DIOXIDE / CHLORIDE / CHOLESTEROL / CREATINE PHOSPHOKINASE / CREATININE / GLUCOSE / LACTATE DEHYDROGENASE / LIPASE / PHOSPHORUS / POTASSIUM / SODIUM / TOTAL BILIRUBIN / TOTAL PROTEIN / URIC ACID: tissue Plasma
[1] = 0 mg/kg, 72 h, dose level Control, time 3 day
[2] = 0 mg/kg, 120 h, dose level Control, time 5 day
[3] = 44 mg/kg, 72 h, dose level Low, time 3 day

Compound: Brc1ccccc1 [BROMOBENZENE]
- ABSOLUTE BASOPHIL [1]: 0 CELLS/uL
- ABSOLUTE EOSINOPHIL [1]: 15.17 CELLS/uL
- ABSOLUTE LYMPHOCYTE [1]: 10149.83 CELLS/uL
- ABSOLUTE MONOCYTE [1]: 193.33 CELLS/uL
- ABSOLUTE SEGMENTED NEUTROPHIL [1]: 1575 CELLS/uL
- BASOPHIL [1]: 0%
- EOSINOPHIL [1]: 0.17%
- ERYTHROCYTE COUNT [1]: 5.53 x10E6/uL
- HEMATOCRIT [1]: 34.7%
- HEMOGLOBIN [1]: 12.78 G/DL
- LEUKOCYTE COUNT [1]: 11.93 x10E3/uL
- LYMPHOCYTE [1]: 85.5%
- MEAN CORPUSCULAR HEMOGLOBIN [1]: 23.15 pg
- MEAN CORPUSCULAR HEMOGLOBIN CONCENTRATION [1]: 36.9 G/DL
- MEAN CORPUSCULAR VOLUME [1]: 62.82 fL
- MONOCYTE [1]: 1.5%
- NEUTROPHIL [1]: 12.83%
- NUCLEATED RED BLOOD CELLS [1]: 0.5 /100WBC
- PLATELET COUNT [1]: 994.17 x10E3/uL
- ALANINE AMINOTRANSFERASE [1]: 48.17 u/L
- ALBUMIN [1]: 4.37 G/DL
- ALKALINE PHOSPHATASE [1]: 436.5 u/L
- ASPARTATE AMINOTRANSFERASE [1]: 83.17 u/L
- BLOOD UREA NITROGEN [1]: 14.67 mg/dL
- CARBON DIOXIDE [1]: 30.83 mmol/L
- CHLORIDE [1]: 99.17 MEQ/L
- CHOLESTEROL [1]: 86.33 mg/dL
- CREATINE PHOSPHOKINASE [1]: 243.33 u/L
- CREATININE [1]: 0.25 mg/dL
- GLUCOSE [1]: 158 mg/dL
- LACTATE DEHYDROGENASE [1]: 262.33 u/L
- LIPASE [1]: 11 u/L
- PHOSPHORUS [1]: 12.07 mg/dL
- POTASSIUM [1]: 6.52 MEQ/L
- SODIUM [1]: 142.45 MEQ/L
- TOTAL BILIRUBIN [1]: 0.17 mg/dL
- TOTAL PROTEIN [1]: 6.25 G/DL
- URIC ACID [1]: 1.42 mg/dL
- ABSOLUTE BASOPHIL [2]: 0 CELLS/uL
- ABSOLUTE EOSINOPHIL [2]: 0 CELLS/uL
- ABSOLUTE LYMPHOCYTE [2]: 10076.67 CELLS/uL
- ABSOLUTE MONOCYTE [2]: 124 CELLS/uL
- ABSOLUTE SEGMENTED NEUTROPHIL [2]: 966 CELLS/uL
- BASOPHIL [2]: 0%
- EOSINOPHIL [2]: 0%
- ERYTHROCYTE COUNT [2]: 5.57 x10E6/uL
- HEMATOCRIT [2]: 33.37%
- HEMOGLOBIN [2]: 12.73 G/DL
- LEUKOCYTE COUNT [2]: 11.17 x10E3/uL
- LYMPHOCYTE [2]: 90.33%
- MEAN CORPUSCULAR HEMOGLOBIN [2]: 22.9 pg
- MEAN CORPUSCULAR HEMOGLOBIN CONCENTRATION [2]: 38.18 G/DL
- MEAN CORPUSCULAR VOLUME [2]: 59.97 fL
- MONOCYTE [2]: 1%
- NEUTROPHIL [2]: 8.67%
- NUCLEATED RED BLOOD CELLS [2]: 0 /100WBC
- PLATELET COUNT [2]: 1078 x10E3/uL
- ALANINE AMINOTRANSFERASE [2]: 37.17 u/L
- ALBUMIN [2]: 4.2 G/DL
- ALKALINE PHOSPHATASE [2]: 322.17 u/L
- ASPARTATE AMINOTRANSFERASE [2]: 67.67 u/L
- BLOOD UREA NITROGEN [2]: 14 mg/dL
- CARBON DIOXIDE [2]: 27.67 mmol/L
- CHLORIDE [2]: 102.17 MEQ/L
- CHOLESTEROL [2]: 67.67 mg/dL
- CREATINE PHOSPHOKINASE [2]: 171.83 u/L
- CREATININE [2]: 0.27 mg/dL
- GLUCOSE [2]: 172 mg/dL
- LACTATE DEHYDROGENASE [2]: 85.33 u/L
- LIPASE [2]: 8.67 u/L
- PHOSPHORUS [2]: 12 mg/dL
- POTASSIUM [2]: 6.09 MEQ/L
- SODIUM [2]: 144.82 MEQ/L
- TOTAL BILIRUBIN [2]: 0.13 mg/dL
- TOTAL PROTEIN [2]: 6.07 G/DL
- URIC ACID [2]: 2.13 mg/dL
- ABSOLUTE BASOPHIL [3]: 0 CELLS/uL
- ABSOLUTE EOSINOPHIL [3]: 0 CELLS/uL
- ABSOLUTE LYMPHOCYTE [3]: 8803 CELLS/uL
- ABSOLUTE MONOCYTE [3]: 197 CELLS/uL
- ABSOLUTE SEGMENTED NEUTROPHIL [3]: 1233.33 CELLS/uL
- BASOPHIL [3]: 0%
- EOSINOPHIL [3]: 0%
- ERYTHROCYTE COUNT [3]: 5.29 x10E6/uL
- HEMATOCRIT [3]: 32.6%
- HEMOGLOBIN [3]: 12.17 G/DL
- LEUKOCYTE COUNT [3]: 10.23 x10E3/uL
- LYMPHOCYTE [3]: 86.33%
- MEAN CORPUSCULAR HEMOGLOBIN [3]: 23 pg
- MEAN CORPUSCULAR HEMOGLOBIN CONCENTRATION [3]: 37.3 G/DL
- MEAN CORPUSCULAR VOLUME [3]: 61.67 fL
- MONOCYTE [3]: 2%
- NEUTROPHIL [3]: 11.67%
- NUCLEATED RED BLOOD CELLS [3]: 0.33 /100WBC
- PLATELET COUNT [3]: 1006 x10E3/uL
- ALANINE AMINOTRANSFERASE [3]: 42.67 u/L
- ALBUMIN [3]: 4.37 G/DL
- ALKALINE PHOSPHATASE [3]: 351 u/L
- ASPARTATE AMINOTRANSFERASE [3]: 74 u/L
- BLOOD UREA NITROGEN [3]: 14 mg/dL
- CARBON DIOXIDE [3]: 30 mmol/L
- CHLORIDE [3]: 100.67 MEQ/L
- CHOLESTEROL [3]: 85 mg/dL
- CREATINE PHOSPHOKINASE [3]: 192.67 u/L
- CREATININE [3]: 0.21 mg/dL
- GLUCOSE [3]: 153.33 mg/dL
- LACTATE DEHYDROGENASE [3]: 151.33 u/L
- LIPASE [3]: 11.33 u/L
- PHOSPHORUS [3]: 12.27 mg/dL
- POTASSIUM [3]: 6.3 MEQ/L
- SODIUM [3]: 144.5 MEQ/L
- TOTAL BILIRUBIN [3]: 0.1 mg/dL
- TOTAL PROTEIN [3]: 6.13 G/DL
- URIC ACID [3]: 1.47 mg/dL
